Several values for one entry are separate records, joined by “and”; a condition that tells them apart may be missing. Identical values can stand only once. Like-named read-outs stand apart in the source and are kept apart here. Blank lines part the entries; values can stand above or below the molecule they belong to.
Experiments:
HL60 cells [1] = experiment: Western blot of PARP and caspase 3 cleavage; type: cell-based, human; details: protected from light and irradiated
Method: Given the different cellular localization properties and time profiles for cell death induced by 9 and 10, the mechanism of cell death was investigated. Indicators of apoptotic cell death (activation of PARP and caspase 3 through proteolysis) were determined in HL60 cells treated with either 9 or 10 (FIGS. 15A and 15B).
The generation of an alternate 55 kDa PARP fragment was determined by immunoblot as a marker for necrosis with 10% (v/v) ethanol used as a control that induces necrosis.

[2] = tested on: HL60 leukemia cells and A549 lung cancer cells; experiment: Cell cytotoxicity studies, summary over HL60 and A549; type: cell-based; details: for activity light versus dark: >450 nm light 3 minutes vs dark
Method: (§1) The HL60 promyelocytic leukemia cell line was obtained from ATCC and cultured in IMDM media (Invitrogen; Carlsbad, Calif.) supplemented with 10% serum supreme (Lonza; Basel, Switzerland) and penicillin/streptomycin at 37° C. with 5% CO2. The A549 cell line was donated and cultured in DMEM supplemented with glutamax, 10% serum supreme, and penicillin/streptomycin at 37° C. with 5% CO2. Cells were plated in Optimem (Life Technologies; Carlsbad, Calif.) supplemented with 1% serum supreme and penicillin/streptomycin at 30,000 cells per well in Costar 96 well flat bottom clear tissue culture treated plates for HL60 and 1500 cells/well for A549. […] The cells were then incubated for 72 hours followed by the addition of Cell Titer Glo (Promega; Madison, Wis.) to determine viability. Dark controls were run in parallel. The resulting luminescence was measured using the SpectraFluor Plus Plate Reader (Tecan). Data were fit to an equation for a sigmoidal dose response using the equation below, where yi and yf are the initial and final signal intensities.
(§2) Cell cytotoxicity studies were performed in HL60 leukemia cells and A549 lung cancer cells (see FIG. 7 and Table 3). Cells were incubated with compounds for 12 hours in the dark before irradiated with >450 nm light (410 W) for 3 minutes. Dark controls were run in parallel. Cell survival was quantified 72 hours later through the use of an ATP luciferase assay, and confirmed by Trypan Blue staining and manual counting.

HL60 cells [3] = experiment: Genomic DNA laddering by gel electrophoresis; type: cell-based, human; details: dark / not irradiated
Source text: To further analyze the mechanisms of cell death induced by 9 and 10, the degradation pattern of genomic DNA was investigated. DNA laddering was observed as a result of DNA fragmentation stemming from the execution phase of apoptosis. In contrast, necrotic cell death lacked this characteristic laddering effect, allowing differentiation between these two mechanisms. […] This laddering was absent in the cells treated with ethanol and compounds 9 and 10 in the dark. […] In contrast, given the cytotoxicity of 9 in the dark and the presence of the 55 kDa PARP fragment, it appears that necrotic cell death is one pathway for […]. For compound 10 the absence of DNA laddering may be a result of the lack of cytotoxicity of the negatively charged compound.

A549 tumor spheroids = experiment: A549 tumor spheroid cytotoxicity; type: cell-based; details: for MCR Index: ratio of spheroid and monolayer culture IC50
Method: A549 cells were seeded at 2,500 cells/well in 1.5% agarose coated 96-well plates. After 7 days the spheroids were dosed with compounds and incubated for 12 hrs. […] Cellular viability was determined 72 hours after light activation for the irradiated samples and at the same time point for the dark samples by measuring ATP concentration with CellTiter Glo (Promega). Data were fit to an equation for sigmoidal dose response shown above using the Prism software package.
3D tumor spheroids were used to test the compounds. Spheroids provide a system that approximates the complexity of in vivo tumors. These spheroids mimic the pathophysiology of tumors, including hypoxic/necrotic regions, changes in cell shape, high proportions of quiescent cells, alterations in gene expression profiles, and diminished permeability to drugs. […] To characterize the light-activated ruthenium compounds under more challenging and biologically relevant conditions, efficacy was assessed in a 3D tumor model by forming tumor spheroids with A549 cells.
Spheroids of about 600 μm in diameter were dosed with compounds and then either kept in the dark or irradiated with >450 nm light for 3 minutes.

[4] = Light and dark cytotoxicity of exemplary compounds (Table 6); type: cell-based; details: for IC50: cell line not stated; for Phototoxicity Index: dark IC50/light IC50
Source text: This Example describes additional specific embodiments the presently-disclosed subject matter. […] The methods for making and characterizing the compounds are based on the methodologies described in the previous examples.

[5] = tested on: HL60 promyelocytic leukemia cell line; experiment: Cell survival assay, HL60; type: cell-based; details: for Phototoxicity Index, PI HL60: ratio of dark and light IC50
Method: as §1, §2

[6] = tested on: HL-60 human leukemia cell line; experiment: Cytotoxicity in HL-60 cells, dark and irradiated (Example 1); type: cell-based
Method: Cytotoxicity studies were performed to determine if the light-induced DNA damage translated to biological activity in cancer cells. […] The compounds were incubated with the cells for 12 hours prior to irradiation with blue (>400 nm), red (>600 nm), and near-IR (>650 nm) light (Table 2). […] Increasing the light dose increased the observed potency. […] A phototoxicity index (PI) value (the toxicity in the dark vs. the light) of 43 was found with blue light for compound 1.

pUC19 plasmid [7] = experiment: Glutathione assay: pUC19 crosslinking with increasing GSH; type: biochemical; details: 30 μM compound, 0.01-40 mM GSH; 4 light-activated
Method: The concentrations of GSH were 0.01, 0.1, 1, 10, 40 mM, giving a molar ratio between the compounds and glutathione of a) 1:0.3, b) 1:3.3, c) 1:33, d) 1:333, e) 1:1333. […] Control reactions with pUC19 in the presence and absence of GSH were carried out for 12 hrs in the dark with 25 μg/ml plasmid and 40 mM GSH in 10 mM phosphate buffer, pH 7.5. The plasmid was resolved on a 1% agarose gel as described above.
(§3) The photoactivated DNA crosslinking Ru(bpy)2 species retained its ability to damage DNA, even at higher GSH concentrations.

A549 lung cancer cells = experiment: Cell survival assay, A549 monolayer; type: cell-based; details: for Phototoxicity Index, PI A549: ratio of dark and light IC50
Method: as §1, §2

CT DNA = experiment: DNA binding affinity (Kb) with CT DNA; set-up: species or system calf; details: racemic mixtures
Source text: Intercalation of both complexes was consistent with the reduced mobility of supercoiled plasmid DNA in agarose gels, and the modulation of the absorption spectra in the presence of DNA, characterized by hypochromism of both the π-π* of the dppz ligand and the MLCT transitions, with maximal effect at a ratio of 2:1 DNA base pairs to metal center. Thus, the strained complex retained DNA-sensing capabilities of other Ru^II “light-switch” molecules and photochemical reactivity.

pUC19 plasmid [8] = experiment: Plasmid-compound gel analysis (Example 2); details: visible light 200 W, 1 hour
[9] = Interaction of prodrug compounds with GSH by UV/Vis spectroscopy; type: physicochemical; details: period of days
Source text: as §3

[10] = dark, read-out: Dark IC50 A549 spheroid
[11] = 3 min >450 nm light, 72 hours, read-out: Light IC50 HL60
[12] = 3 min >450 nm light, 72 hours, read-out: Light IC50 A549
[13] = 3 min >450 nm light, 72 hours, read-out: Light IC50 A549 spheroid

Molecule: N.N.[Cl][Pt][Cl] [Cisplatin, reference compound]
55 kDa PARP fragment (marker for necrosis) (HL60 cells [1]): also produced this cleavage product | activity light versus dark [2]: same activity under light and dark conditions | genomic DNA laddering (HL60 cells [3]): initiated DNA fragmentation resulting in a laddering pattern | IC50 (A549 tumor spheroids; [10]): 42 µM | IC50 ([4]; read-out: Dark IC50): 3.1 µM | IC50 ([4]; read-out: Light IC50): 3.1 µM | IC50 [5, 11]: 3.1 µM | IC50 ([5]; dark, read-out: Dark IC50 HL60): 3.1 µM | IC50 ([6]; HL-60, dark, read-out: IC50 Dark): 3.1 µM | IC50 ([6]; HL-60, light condition not given, read-out: IC50): 3.1 µM | IC50 ([6]; read-out: IC50 Blue (3 min), HL-60, 12 hours incubation, blue (>400 nm) light 3 min): 3.1 µM | plasmid DNA crosslinking in presence of increasing GSH (pUC19 plasmid [7]): reduced crosslinking efficacy | IC50 (A549 lung cancer cells; [12]): 3.4 µM | IC50 (A549 lung cancer cells; dark, read-out: Dark IC50 A549): 3.5 µM

Molecule: Cl.NCC(=O)CCC(=O)O [ALA, 5-aminolevulinic acid hydrochloride, reference compound]
Light IC50 A549 spheroid (A549 tumor spheroids; 3 min >450 nm light, 72 hours): had no effect | IC50 (A549 tumor spheroids; Homo sapiens, A549, 3 min >450 nm light, 72 hours, read-out: Light IC50 A549 spheroid): > 300 µM | IC50 (A549 tumor spheroids; Homo sapiens, A549, read-out: Dark IC50 A549 spheroid): > 300 µM | MCR Index (A549 tumor spheroids): >14 | IC50 ([5]; Homo sapiens, HL-60, 3 min >450 nm light, 72 hours, read-out: Light IC50 HL60): 16.2 µM | IC50 ([5]; Homo sapiens, HL-60, read-out: Dark IC50 HL60): > 300 µM | Phototoxicity Index, PI HL60 [5]: >18 | IC50 (A549 lung cancer cells; Homo sapiens, A549, 3 min >450 nm light, 72 hours, read-out: Light IC50 A549): 21 µM | IC50 (A549 lung cancer cells; Homo sapiens, A549, read-out: Dark IC50 A549): 87.8 µM | Phototoxicity Index, PI A549 (A549 lung cancer cells): 4.2

Kb (CT DNA): 1e+07 M⁻¹
Molecule: Ru(bpy)2dppz [Compound 7, reference compound]

Molecule: Cc1ccc2ccc3ccc(C)nc3c2n1.Cc1ccc2ccc3ccc(C)nc3c2n1.[Ru+2].c1ccc(-c2ccccn2)nc1 [Ru(dmphen)2bpy]
IC50 ([4]; read-out: Dark IC50): 150 µM | IC50 ([4]; read-out: Light IC50): 1.2 µM | Phototoxicity Index [4]: 125

Molecule: Cc1ccc2ccc3ccc(C)nc3c2n1.Cc1ccc2ccc3ccc(C)nc3c2n1.[Ru+2].c1cnc2c(c1)c1nccnc1c1cccnc12 [Ru(dmphen)2dpq]
IC50 ([4]; read-out: Dark IC50): 250 µM | IC50 ([4]; read-out: Light IC50): 0.22 µM | Phototoxicity Index [4]: 1,130

Molecule: [Ru+2].c1ccc(-c2ccccn2)nc1.c1ccc(-c2ccccn2)nc1.c1cnc2c(c1)ccc1cccnc12 [Compound 3, Ru(bpy)2phen]
IC50 (A549 tumor spheroids; [13]): > 300 µM | IC50 (A549 tumor spheroids; [10]): > 300 µM | MCR Index (A549 tumor spheroids): >7.5 | IC50 [5, 11]: 81 µM | IC50 ([5]; dark, read-out: Dark IC50 HL60): 240 µM | Phototoxicity Index, PI HL60 [5]: 3 | IC50 (A549 lung cancer cells; [12]): 40 µM | IC50 (A549 lung cancer cells; dark, read-out: Dark IC50 A549): 250 µM | Phototoxicity Index, PI A549 (A549 lung cancer cells): 6.3 | type of DNA damage upon visible light (pUC19 plasmid [8]): DNA photocleavage

Molecule: Cc1ccc2ccc3ccc(C)nc3c2n1.Cc1ccc2ccc3ccc(C)nc3c2n1.[Ru+2].c1cnc2c(c1)ccc1cccnc12 [Ru(dmphen)2phen]
IC50 ([4]; read-out: Dark IC50): 35 µM | IC50 ([4]; read-out: Light IC50): 0.14 µM | Phototoxicity Index [4]: 250

Molecule: Cc1ccc2ccc3ccc(C)nc3c2n1.[Ru+2].c1ccc(-c2ccccn2)nc1.c1ccc(-c2ccccn2)nc1 [Ru(bpy)2dmphen]
IC50 ([4]; read-out: Dark IC50): 8 µM | IC50 ([4]; read-out: Light IC50): 0.4 µM | Phototoxicity Index [4]: 20

Molecule: COc1cccc2c1C(=O)c1c(O)c3c(c(O)c1C2=O)C[C@@](O)(C(=O)CO)C[C@@H]3O[C@H]1C[C@H](N)[C@H](O)[C@H](C)O1 [doxorubicin, reference compound]
55 kDa PARP fragment (marker for necrosis) (HL60 cells [1]): also produced this cleavage product

Molecule: Cc1ccc2ccc3ccc(C)nc3c2n1.Cc1ccc2ccc3ccc(C)nc3c2n1.[Ru+2].c1ccc2nc3c4cccnc4c4ncccc4c3nc2c1 [Ru(dmphen)2dppz]
IC50 ([4]; read-out: Dark IC50): 150 µM | IC50 ([4]; read-out: Light IC50): 0.5 µM | Phototoxicity Index [4]: 300

Molecule: Cc1ccc2c3nccnc3c3ccc(C)nc3c2n1.F[P-](F)(F)(F)(F)F.F[P-](F)(F)(F)(F)F.[Ru+2].c1ccc(-c2ccccn2)nc1.c1ccc(-c2ccccn2)nc1 [Compound 5, Ru(bpy)2dmdpq]
activity light versus dark [2]: light-triggered toxicity | IC50 values after irradiation ([2]; after irradiation): single μM IC50 values | IC50 ([2]; dark): > 100 µM | interaction with GSH [9]: did not interact with GSH | IC50 (A549 tumor spheroids; [13]): 64 µM and 64.6 µM | IC50 (A549 tumor spheroids; [10]): > 300 µM | MCR Index (A549 tumor spheroids): 54 | IC50 ([4]; read-out: Dark IC50): 250 µM | IC50 ([4]; read-out: Light IC50): 0.6 µM | Phototoxicity Index [4]: 400 | IC50 [5, 11]: 2.6 µM | IC50 ([5]; dark, read-out: Dark IC50 HL60): 108 µM | Phototoxicity Index, PI HL60 [5]: 216 | IC50 (A549 lung cancer cells; [12]): 1.2 µM | IC50 (A549 lung cancer cells; dark, read-out: Dark IC50 A549): 250 µM | Phototoxicity Index, PI A549 (A549 lung cancer cells): 208 | type of DNA damage upon visible light (pUC19 plasmid [8]): combination of these two mechanisms

Molecule: Cc1cc(-c2ccccc2)c2ccc3c(-c4ccccc4)cc(C)nc3c2n1.[Ru+2].c1ccc(-c2ccccn2)nc1.c1ccc(-c2ccccn2)nc1 [Ru(bpy)2bathocuprione]
IC50 ([4]; read-out: Dark IC50): 27 µM | IC50 ([4]; read-out: Light IC50): 3.3 µM | Phototoxicity Index [4]: 8.18

Molecule: Cc1ccc2ccc3ccc(C)nc3c2n1.Cc1ccc2ccc3ccc(C)nc3c2n1.[Ru+2].c1ccc(-c2ccnc3c2ccc2c(-c4ccccc4)ccnc23)cc1 [Ru(dmphen)2bathophen]
IC50 ([4]; read-out: Dark IC50): 4.5 µM | IC50 ([4]; read-out: Light IC50): 1.7 µM | Phototoxicity Index [4]: 2.5

Reference: patent US9290528B1, “Light-activated compounds” (University of Kentucky Research Foundation, priority 2013, dated 2016)
